The record followed here is patent US20040142952A1, “Triazoloquinazoline and pyrazolotriazolopyrimidine derivatives, medicinal compositions, adenosine a3 receptor affinity agents, ocular tension lowering agents, preparations for preventing and treating glaucoma and method of lowering ocular tension” (priority 2001, published 2004).

Some results are limits rather than exact numbers.

The compound `CCCCc1nc2nncc-2c2nc(-c3ccc(O)cc3)[nH]n12` [Example 12, 5-n-butyl-2-(4-hydroxyphenyl)pyrazolo[4,3-e]-1,2,4-triazolo[1,5-c]pyrimidine] returned a melting point greater than 280 °C.

In the case of `CCCCc1nc2nncc-2c2nc(-c3ccc(OCCC)cc3)[nH]n12` [Example 14, 5-n-butyl-2-(4-propoxyphenyl)pyrazolo[4,3-e]-1,2,4-triazolo[1,5-c]pyrimidine], the melting point fell in the range of 191 to 192 °C.

The compound `CCCCc1nc2nncc-2c2nc(-c3cc(OC)c(OC)c(OC)c3)[nH]n12` [Example 15, 5-n-butyl-2-(3,4,5-trimethoxyphenyl)pyrazolo[4,3-e]-1,2,4-triazolo[1,5-c]pyrimidine] returned a melting point of 259 to 262 °C.

In the case of `CCCCc1nc2nncc-2c2nc(-c3ccc([N+](=O)[O-])cc3)[nH]n12` [Example 17, 5-n-butyl-2-(4-nitrophenyl)pyrazolo[4,3-e]-1,2,4-triazolo[1,5-c]pyrimidine], the melting point lay within 279 to 280.5 °C.

Compound `CCCCc1nc2nncc-2c2nc(-c3cccnc3)[nH]n12` [Example 18, 5-n-butyl-2-(3-pyridyl)pyrazolo[4,3-e]-1,2,4-triazolo[1,5-c]pyrimidine] had a melting point of 217 to 219 °C.

In the case of `CCCCc1nc2nncc-2c2nc(-c3ccco3)[nH]n12` [Example 19, 5-n-butyl-2-(2-furyl)pyrazolo[4,3-e]-1,2,4-triazolo[1,5-c]pyrimidine], the melting point was in the range of 253 to 254.5 °C.

For the compound `CCCCc1nc2nncc-2c2nc(-c3cccs3)[nH]n12` [Example 20, 5-n-butyl-2-(2-thienyl)pyrazolo[4,3-e]-1,2,4-triazolo[1,5-c]pyrimidine], the melting point was in the range of 214 to 216 °C.

The compound `CCCc1nc2ccccc2c2nc(-c3ccccc3)nn12` [Example 21, 2-phenyl-5-propyl-1,2,4-triazolo[1,5-c]quinazoline] displayed a melting point of 143 to 144 °C.

As for `CCCCc1nc2ccccc2c2nc(-c3ccccc3Cl)nn12` [Example 24, 5-n-butyl-2-(2-chlorophenyl)-1,2,4-triazolo[1,5-c]quinazoline], the melting point lay within 104.5 to 105.55 °C.

`CCCCc1nc2ccccc2c2nc(-c3cccc(Cl)c3)nn12` [Example 25, 5-n-butyl-2-(3-chlorophenyl)-1,2,4-triazolo[1,5-c]quinazoline]: the melting point lay in the range of 129 to 131 °C.

Consider `CCCCc1nc2ccccc2c2nc(-c3ccc(C(C)(C)C)cc3)nn12` [Example 29, 5-n-butyl-2-(4-t-butylphenyl)-1,2,4-triazolo[1,5-c]quinazoline], for which the melting point lay within 106 to 108 °C.

On to `CCCCc1nc2ccccc2c2nc(-c3ccccc3OC)nn12` [Example 33, 5-n-butyl-2-(2-methoxyphenyl)-1,2,4-triazolo[1,5-c]quinazoline], for which the melting point is 106.5 to 107.5 °C.

Regarding `CCCCc1nc2ccccc2c2nc(-c3ccc(OCCC)cc3)nn12` [Example 36, 5-n-butyl-2-(4-propoxyphenyl)-1,2,4-triazolo[1,5-c]quinazoline], the melting point is 128 to 129 °C.

As to `CCCCc1nc2ccccc2c2nc(-c3cc(OC)c(OC)c(OC)c3)nn12` [Example 37, 5-n-butyl-2-(3,4,5-trimethoxyphenyl)-1,2,4-triazolo[1,5-c]quinazoline], the melting point lay within 130 to 133 °C.

`CCCCc1nc2ccccc2c2nc(-c3ccc(N(C)C)cc3)nn12` [Example 38, 5-n-butyl-2-[4-(N,N-dimethylamino)phenyl]-1,2,4-triazolo[1,5-c]quinazoline]: the melting point lay within 148.5 to 150 °C.

In turn, `CCCCc1nc2ccccc2c2nc(-c3ccc([N+](=O)[O-])cc3)nn12` [Example 39, 5-n-butyl-2-(4-nitrophenyl)-1,2,4-triazolo[1,5-c]quinazoline] yielded a melting point of 194 to 195 °C.

The compound `CCCCc1nc2ccccc2c2nc(-c3cccnc3)nn12` [Example 40, 5-n-butyl-2-(3-pyridyl)-1,2,4-triazolo[1,5-c]quinazoline] returned a melting point of 140 to 141.5 °C.

For the compound `CCCCc1nc2ccccc2c2nc(-c3cccs3)nn12` [Example 42, 5-n-butyl-2-(2-thienyl)-1,2,4-triazolo[1,5-c]quinazoline], the melting point fell in the range of 147 to 149.5 °C.

With `CCCCc1nc2cccc(F)c2c2nc(-c3ccccc3)nn12` [Example 43, 5-n-butyl-10-fluoro-2-phenyl-1,2,4-triazolo[1,5-c]quinazoline], the melting point was 123 to 124 °C.

With `CCCCc1nc2ccc(Br)cc2c2nc(-c3ccccc3)nn12` [Example 47, 9-bromo-5-n-butyl-2-phenyl-1,2,4-triazolo[1,5-c]quinazoline], the melting point fell in the range of 129.5 to 132.5 °C.

The compound `CCCCc1nc2cc(OC)c(OC)cc2c2nc(-c3ccccc3)nn12` [Example 48, 5-n-butyl-8,9-dimethoxy-2-phenyl-1,2,4-triazolo[1,5-c]quinazoline] registered a melting point of 150 to 152 °C.

Compound `CCCCc1nc2cccc(C)c2c2nc(-c3ccccc3)nn12` [Example 49, 5-n-butyl-10-methyl-2-phenyl-1,2,4-triazolo[1,5-c]quinazoline] registered a melting point of 123 to 124 °C.

Regarding `CCCCc1nc2nncc-2c2nc(-c3ccccc3OC)[nH]n12` [Example 53, 5-n-butyl-2-(2-methoxyphenyl)pyrazolo[4,3-e]-1,2,4-triazolo[1,5-c]pyrimidine], the melting point lay in the range of 157 to 160 °C.

The compound `CCCCc1nc2nncc-2c2nc(-c3ccc(SC)cc3)[nH]n12` [Example 56, 5-n-butyl-2-(4-methylthiophenyl)pyrazolo[4,3-e]-1,2,4-triazolo[1,5-c]pyrimidine] registered a melting point of 204 to 205 °C.

Consider `CCCCc1nc2ccccc2c2nc(-c3cccc(OC)c3)nn12` [Example 57, 5-n-butyl-2-(3-methoxyphenyl)-1,2,4-triazolo[1,5-c]quinazoline], for which the melting point was 118 to 119 °C.

Regarding `CCCCc1nc2ccccc2c2nc(-c3ccc(SC)cc3)nn12` [Example 58, 5-n-butyl-2-(4-methylthiophenyl)-1,2,4-triazolo[1,5-c]quinazoline], the melting point lay within 140.5 to 141.5 °C.

`c1ccc(-c2nc3c4cnnc-4nc(-c4ccccc4)n3[nH]2)cc1` [Example 59, 2,5-diphenylpyrazolo[4,3-e]-1,2,4-triazolo[1,5-c]pyrimidine] came in with a melting point of 272.5 to 275 °C.

In turn, `CCCc1nc2nncc-2c2nc(-c3ccc(C)cc3)[nH]n12` [Example 60, 2-(4-methylphenyl)-5-n-propylpyrazolo[4,3-e]-1,2,4-triazolo[1,5-c]pyrimidine] showed a melting point of 274 to 275 °C.

Compound `CCc1nc2nncc-2c2nc(-c3ccc(OC)cc3)[nH]n12` [Example 63, 5-ethyl-2-(4-methoxyphenyl)pyrazolo[4,3-e]-1,2,4-triazolo[1,5-c]pyrimidine] had a melting point of 274 to 277 °C.

Compound `CCc1nc2nncc-2c2nc(-c3ccc(Cl)cc3)[nH]n12` [Example 64, 2-(4-chlorophenyl)-5-ethylpyrazolo[4,3-e]-1,2,4-triazolo[1,5-c]pyrimidine] had a melting point greater than 280 °C.

`CCc1nc2nncc-2c2nc(-c3ccc(C)cc3)[nH]n12` [Example 65, 5-ethyl-2-(4-methylphenyl)pyrazolo[4,3-e]-1,2,4-triazolo[1,5-c]pyrimidine] showed a melting point greater than 280 °C.

Regarding `CCc1nc2ccccc2c2nc(-c3ccc(Br)cc3)nn12` [Example 66, 2-(4-bromophenyl)-5-ethyl-1,2,4-triazolo[1,5-c]quinazoline], the melting point fell in the range of 197 to 198 °C.

`CCc1nc2ccccc2c2nc(-c3ccc(F)cc3)nn12` [Example 67, 5-ethyl-2-(4-fluorophenyl)-1,2,4-triazolo[1,5-c]quinazoline] displayed a melting point of 195 to 196 °C.

`CCc1nc2ccccc2c2nc(-c3ccc(Cl)cc3)nn12` [Example 68, 2-(4-chlorophenyl)-5-ethyl-1,2,4-triazolo[1,5-c]quinazoline] registered a melting point of 197 to 198 °C.

In the case of `CCc1nc2ccccc2c2nc(-c3ccc(C)cc3)nn12` [Example 69, 5-ethyl-2-(4-methylphenyl)-1,2,4-triazolo[1,5-c]quinazoline], the melting point fell in the range of 147 to 148 °C.

`CCc1nc2ccccc2c2nc(-c3ccc(OC)cc3)nn12` [Example 71, 5-ethyl-2-(4-methoxyphenyl)-1,2,4-triazolo[1,5-c]quinazoline] displayed a melting point of 167.5 to 168 °C.

With `CCOc1ccc(-c2nc3c4ccccc4nc(CC)n3n2)cc1` [Example 72, 2-(4-ethoxyphenyl)-5-ethyl-1,2,4-triazolo[1,5-c]quinazoline], the melting point was in the range of 153 to 154 °C.

The compound `CCCc1nc2ccc(Cl)cc2c2nc(-c3ccccc3)nn12` [Example 73, 9-chloro-2-phenyl-5-n-propyl-1,2,4-triazolo[1,5-c]quinazoline] gave a melting point of 140.5 to 141.5 °C.

Take `CCCCc1nc2ccc(Cl)cc2c2nc(-c3ccc(F)cc3)nn12` [Example 74, 5-n-butyl-9-chloro-2-(4-fluorophenyl)-1,2,4-triazolo[1,5-c]quinazoline]: the melting point fell in the range of 147.5 to 150 °C.

`CCCCc1nc2ccc(Cl)cc2c2nc(-c3ccc(C)cc3)nn12` [Example 77, 5-n-butyl-9-chloro-2-(4-methylphenyl)-1,2,4-triazolo[1,5-c]quinazoline] returned a melting point of 141 to 143 °C.

For the compound `CCCc1nc2cc(Cl)ccc2c2nc(-c3ccccc3)nn12` [Example 79, 8-chloro-2-phenyl-5-n-propyl-1,2,4-triazolo[1,5-c]quinazoline], the melting point is 147 to 149 °C.

On to `CCCCc1nc2cc(Cl)ccc2c2nc(-c3ccc(F)cc3)nn12` [Example 80, 5-n-butyl-8-chloro-2-(4-fluorophenyl)-1,2,4-triazolo[1,5-c]quinazoline], for which the melting point was 185.5 to 186.5 °C.

The compound `CCCCc1nc2cc(Cl)ccc2c2nc(-c3ccc(C)cc3)nn12` [Example 83, 5-n-butyl-8-chloro-2-(4-methylphenyl)-1,2,4-triazolo[1,5-c]quinazoline] showed a melting point of 134 to 134.5 °C.

The compound `CCCCc1nc2ccc([N+](=O)[O-])cc2c2nc(-c3ccccc3)nn12` [Example 85, 5-n-butyl-9-nitro-2-phenyl-1,2,4-triazolo[1,5-c]quinazoline] gave a melting point of 205.5 to 206 °C.
